Test results reported in patent publication US7101900B2, “Benzyl amidoxime derivatives, intermediate products and method for their production and use as fungicides” (BASF Aktiengesellschaft, priority 1999, dated 2006).

Columns and labels:
[1] = test system: cucumber mildew (Sphaerotheca fuliginea); test: Protective activity against cucumber mildew (spray test on cucumber seedlings); assay type: in vivo; details: cucumber seedlings c.v. Chinesische Schlange, inoculated 20 hours after spray coating dried, visual, total leaf area, after 20 days, untreated 90
Method: Protective Activity Against Cucumber Mildew
At the two-leaf stage, leaves of cucumber seedlings c.v. “Chinesische Schlange” which had been grown in pots were sprayed to run off point with an aqueous preparation of active compound which had been prepared from a stock solution comprising 10% of active compound, 63% of cyclohexanone and 27% of emulsifier. 20 hours after the spray coating had dried on, the plants were inoculated with an aqueous spore suspension of cucumber mildew (Sphaerotheca fuliginea). The plants were then cultivated in a greenhouse at 20–24° C. and 60–80% relative atmospheric humidity for 20 days. The extent of the mildew development was then determined visually in % infection of the total leaf area.

[2] = test system: powdery mildew of wheat (Erysiphe graminis forma specialis tritici); test: Activity against mildew of wheat (protective spray test on wheat seedlings); assay type: in vivo; details: wheat seedlings c.v. Kanzler, dusted with spores 24 hours after spray coating dried, visual, total leaf area, after 7 days, untreated 95
Method: Activity Against Mildew of Wheat
Leaves of wheat seedlings c.v. “Kanzler” which had been grown in pots were sprayed to run off point with an aqueous preparation of active compound which had been prepared from a stock solution comprising 10% of active compound, 63% of cyclohexanone and 27% of emulsifier, and, 24 hours after the spray coating had dried on, dusted with spores of powdery mildew of wheat (Erysiphe graminis forma specialis tritici). The test plants were then placed in a greenhouse at 20–24° C. and 60–90% relative atmospheric humidity. After 7 days, the extent of the mildew development was determined visually in percent infection of the total leaf area.

O=C(Cc1ccccc1)NC(Cc1c(Cl)cccc1Cl)=NOCC1CC1 [No. 1, O-cyclopropylmethyl N-phenylacetyl-(2,6-dichlorophenyl)-acetamidoxime]
% infection of the leaves after application of an aqueous preparation comprising 63 ppm of active compound [1]: 10% | % infection of the leaves after application of an aqueous preparation comprising 16 ppm of active compound [2]: 3%

O=C(Cc1ccccc1)NC(Cc1c(F)cccc1Cl)=NOCC1CC1 [No. 2, O-cyclopropylmethyl N-phenylacetyl-(2-chloro-6-fluorophenyl)-acetamidoxime]
% infection of the leaves after application of an aqueous preparation comprising 63 ppm of active compound [1]: 10% | % infection of the leaves after application of an aqueous preparation comprising 16 ppm of active compound [2]: 3%
